From patent US20020111386A1, “Apparatus for pulmonary delivery of drugs with simultaneous liquid lavage and ventilation” (priority 1989, published 2002)

Test system: anesthetized and tracheotomized young cats
Test: Pulmonary administration of drugs dispersed in PFC liquid during liquid ventilation: cardiovascular and airway smooth muscle effects
Assay type: in vivo, cat
Conditions: for effect on airway on addition to perfluorocarbon ventilation liquid: added to a perfluorocarbon ventilation liquid
Description: When testing the dose-dependency effect of the pulmonary administration of acetylcholine [ACh], the effect after the administration of the drug (expressed as a percentage of the baseline), as a function of the concentration of the drug, was monitored.
Here, the ACh was dispersed in the PFC liquid medium. The initial amount of ACh dispersed in the PFC liquid was 0.01 mg per each kilogram of the laboratory animal's body weight.
Each of the animals tested had at least one of the following parameters recorded before, during and after the pulmonary administration of the drug: (a) heart rate (bpm), (b) mean arterial pressure (mm Hg), and (c) tracheal pressure (cm water). The averages for each of these recorded parameters were then calculated, depending upon the number of cats tested. These calculated values are plotted on the graph in FIG. 35.
In addition to the above, the following parameters were also monitored and/or controlled: tidal volume, inspiratory and expiratory liquid flow rate, arterial chemistry, pulmonary compliance and resistance, and/or breathing frequency.
For each incremental increase, the animals tested had at least one of the aforementioned parameters recorded before and after the pulmonary administration of the drug.
Also for each incremental increase, the averages for each recorded parameter were calculated and plotted on the graph in FIG. 35.
Another way in which the effect of the pulmonary administration of ACh was tested was by monitoring carotid pressure, as a function of time, before, during and after the pulmonary administration of the drug. Here, 0.6 mg/kg of Ach was dispersed in the PFC liquid medium.
Yet another way in which the effect of the pulmonary administration of ACh was tested was by monitoring tracheal pressure, as a function of time, before, during and after the pulmonary administration of the drug.
Here, 0.6 mg/kg of ACh was dispersed in the PFC liquid medium.
When testing the dose-dependency effect of the pulmonary administration of epinephrine [Epi], the effect after the administration of the drug (expressed as a percentage of the baseline), as a function of the concentration of the drug, was monitored.
Here, the Epi was dispersed in the PFC liquid medium. The initial amount of Epi dispersed in the PFC liquid was 0.01 mg Per each kilogram of the laboratory animal's body weight.
Each of the animals tested had at least one of the following parameters recorded before and after the pulmonary administration of the drug: (a) heart rate (bpm), (b) mean arterial pressure (mm Hg), and (c) tracheal pressure (cm water). The averages for each of these recorded parameters were then calculated, depending upon the number of cats tested. These calculated values are plotted on the graph in FIG. 36.
Also for each incremental increase, the averages for each recorded parameter were calculated and plotted on the graph in FIG. 36.
Another way in which the effect of the pulmonary administration of Epi was tested was by monitoring the change in mean arterial pressure and heart rate resulting from drug delivery.
Here, 0.50 mg/kg of Epi was dispersed in the PFC liquid medium.
When testing the dose-dependency effect of the pulmonary administration of priscoline [P], the effect after the administration of the drug (expressed as a percentage of the baseline), as a function of the concentration of the drug, was monitored.
Here, the P was dispersed in the PFC liquid medium. The initial amount of P dispersed in the PFC liquid was 4 mg.
Each of the animals tested weighed approximately 3 kg. Each of these test animals had at least one of the following parameters recorded before and after the pulmonary administration of the drug: (a) heart rate (bpm), (b) mean arterial pressure (mm Hg), and (c) right ventricular pressure.
The averages for each of the aforementioned recorded parameters were then calculated, depending upon the number of cats tested. These calculated values are plotted on the graph in FIG. 37. […]

[1] = P 4 mg to 12 mg in inspired PFC liquid, animals approx. 3 kg, FIG. 37
[2] = Epi 0.01 to 1.0 mg/kg in inspired PFC liquid, FIG. 36

CC(C)NCC(O)c1ccc(O)c(O)c1 (centres unmarked) [isoproterenol]
effect on airway on addition to perfluorocarbon ventilation liquid: Airway dilation

c1ccc(CC2=NCCN2)cc1 [P, priscoline]
decrease in carotid pressure after drug administration (12 mg P in PFC liquid): about 30 mm Hg
onset of decrease in carotid pressure after administration (12 mg P in PFC liquid): almost instantaneously
total time necessary to decrease the carotid pressure by about 30 mm Hg (12 mg P in PFC liquid): about 10 seconds
heart rate, dose-dependent response (percentage of baseline) [1]: remained fairly constant
mean arterial pressure, dose-dependent response (percentage of baseline) [1]: decreases
right ventricular pressure, dose-dependent response (percentage of baseline) [1]: decreases

CNC[C@H](O)c1ccc(O)c(O)c1 [Epi, epinephrine]
decrease in tracheal pressure after drug administration (0.50 mg/kg Epi in PFC liquid): 31%
increase in heart rate after drug administration (0.50 mg/kg Epi in PFC liquid): 33%
heart rate, dose-dependent response (percentage of baseline) [2]: increases
mean arterial pressure, dose-dependent response (percentage of baseline) [2]: increases
peak tracheal pressure, dose-dependent response (percentage of baseline) [2]: decrease
effect on airway on addition to perfluorocarbon ventilation liquid: Airway dilation

CC(=O)OCC[N+](C)(C)C [ACh, acetylcholine]
increase in tracheal pressure after drug administration (0.6 mg/kg ACh in PFC liquid): about 6 mm Hg
total time necessary to decrease the carotid pressure by about 40 mm Hg (0.6 mg/kg ACh in PFC liquid): about 10 seconds
total time necessary to increase the tracheal pressure (cm water) by about 5 mm Hg (0.6 mg/kg ACh in PFC liquid): about 20 seconds
decrease in carotid pressure after drug administration (0.6 mg/kg ACh in PFC liquid, via endotracheal tube): about 40 mm Hg
